Series [1] in a line: Compound was evaluated for the partition coefficient in octanol/water. Type of series: physicochemical.
Series [2] can be described thus: Compound was evaluated for the partition coefficient in octanol/water (1-octanol / 10 mM phosphate buffer at pH 7.4). Type of series: physicochemical.

In the case of `O=CCCC1([N+](=O)[O-])CCCC1`, in series [1], the K came to 0.8.
The same measure, in the same setting: as for `CCCCC(C)(CCC=O)[N+](=O)[O-]` (centres undefined), the figure is 1.1.
For `CC1(C)CCC=[N+]1[O-]`, in series [2], the K turned out to be 0.02.
In series [1], `CCCC(CCC)(CCC=O)[N+](=O)[O-]` returned a K of 4.9.

For the origin of these results see ChEMBL document CHEMBL1123380, “Spin trapping of superoxide and hydroxyl radicals with substituted pyrroline 1-oxides” (J Med Chem, 1986).
